Measurements published in patent US20140371237A1, “p19Arf, HMGA2 and MDM2 For Use in the Diagnosis and Treatment of Aberrant Cell Growth” (University of Bremen, priority 2010, published 2014).

Key:
[1] = system: leiomyoma explants and matching myometrium; assay: Nutlin-3 sensitivity of leiomyoma explants compared with matching myometrium (qRT-PCR p21, BAX); type: cell-based, human
Source text: As disclosed herein and in [7], leiomyomas show elevated levels of p14^Arf mRNA compared to myometrium resulting from a negative feedback-loop between p53 and MDM2 which in turn results in an activation of MDM2. Furthermore, without intending to be bound by theory, it was hypothesized herein and in [11] that within the p14^Arf-driven pathway a delicate balance between p53 and MDM2 assures the proliferative activity of leiomyomas as well as their genomic integrity. Accordingly, it can be speculated that leiomyomas may be more sensitive against MDM2 inhibition than matching myometrium.
Altogether, tissue samples of 36 patients have been investigated herein; see Table 1 in FIGS. 20A and 20B. The study was approved by the local ethics committee and prior to surgery; informed written consent was obtained from all patients. For gene expression studies samples of 52 UL from 31 patients along with matching myometrium were taken during surgery, immediately frozen in liquid nitrogen, and stored at −80° C. for RNA isolation and qRT-PCR analyses of p14^Arf. For MDM2 inhibition six tissue samples of UL from four patients as well as matching myometrium were taken during surgery and immediately transferred into sterile Hank's solution.
[…] As controls tissue explants were incubated in medium 199 supplemented with 20% FCS without nutlin-3 for 72 h.
About 250 ng of total RNA were reverse transcribed with 200 U/μl of M-MLV reverse transcriptase (Invitrogen, Karlsruhe, Germany), RNase Out, 150 ng random hexamers and 10 mM dNTPs according to the manufacturer's instructions. RNA was denatured at 65° C. for 5 min and subsequently kept on ice for 1 min. After adding the enzyme to the RNA primer mixes, samples were incubated for 10 min at 25° C. to allow annealing of the random hexamers. Reverse transcription was performed at 37° C. for […] followed by inactivation of the reverse transcriptase at 70° C. for 15 min.
Relative quantification of transcription levels was carried out by real-time PCR analyses using the Applied Biosystems 7300 real-time PCR system (Applied Biosystems, Darmstadt, Germany). Commercially available gene expression assays (Applied Biosystems, Darmstadt, Germany) were used for quantification of mRNA of human p14^Arf (Hs00924091), BAX (Hs00180269_m1), CDKN1A (Hs 99999142), and MKI67 (Hs00606991_m1). HPRT served as endogenous control. All qRT-PCR experiments were done in triplicate.

[2] = system: p53 in explants from an UL; assay: Western blot analysis of p53 in UL explants treated with nutlin-3; type: cell-based, human; conditions: explants of case 0700-1, 30 μM and 50 μM, 72 h
Procedure: Nutlin-3 acts as an inhibitor of MDM2 which in turn destabilizes p53. To see whether the increased expression of the senescence and apoptotic markers noted after treatment of the explants with nutlin-3 was indeed due to an elevated level of p53, explants of case 0700-1 treated with 30 μM and 50 μM nutlin-3, respectively, for 72 h were used for immunoblot analyses.
For treatment with nutlin-3 (Biomol, Hamburg, Germany) tissue samples were minced into small pieces of approximately 0.5 cm diameter and incubated in medium 199 supplemented with 20% FCS and nutlin-3 (3, 10, or 50 μM) for 72 h. As controls tissue explants were incubated in medium 199 supplemented with 20% FCS without nutlin-3 for 72 h.
Protein extracts were obtained using RIPA buffer and concentrations were determined using a BCA protein assay (Thermo Scientific, Rockford, USA) according to the manufacturer's instructions. Total protein (16 μg per lane) was separated using a SDS-polyacrylamide gel and transferred onto a nitrocellulose membrane. SeeBlue Plus2 Pre-Stained Standard (Invitrogen, Karlsruhe, Germany) was used as marker. […]

## COc1ccc(C2=N[C@@H](c3ccc(Cl)cc3)[C@@H](c3ccc(Cl)cc3)N2C(=O)N2CCNC(=O)C2)c(OC(C)C)c1 [nutlin-3]
[1]; 3 μM and 10 μM, 72 h
  BAX expression, sensitivity of leiomyoma explants versus matching myometrium: generally higher sensitivity of the leiomyoma explants
[1]; 3 μM and 10 μM, 72 h, all tissue explants treated
  p21 expression in fibroids versus matching myometrial tissue: exceeded that seen in the matching myometrial tissue
[1]; cases 683 and 687, 10 μM, 72 h
  BAX expression, myometrium versus leiomyoma, exceptional cases: the expression in the myometrium exceeded that of the leiomyoma
[1]; six days
  sensitivity of the myometrium to the MDM2 inhibition versus matching fibroids: reduced sensitivity
[2]
  amount of p53 (immunoblot): concentration-dependent increase
